Reference: patent US20010041733A1, “Heterocyclic ester and amide hair growth compositions and uses” (GPI NIL Holdings, Inc., priority 1998, published 2001)
pKi: −log10 of the molar value.

Columns and labels:
[1] = target: FKBP12 (Homo sapiens, UniProt P62942); assay: Ki test procedure: inhibition of peptidyl-prolyl isomerase (rotamase) activity, chymotrypsin-coupled assay; type: biochemical; conditions: substrate N-succinyl-Ala-Ala-Pro-Phe-p-nitroanilide, read-out: Ki (apparent)
Description: The compounds used in the inventive methods and pharmaceutical compositions have an affinity for the inhibition of the prolyl peptidyl cis-trans isomerase activity of FKBP may be measured as an indicator of this affinity.
Inhibition of the peptidyl-prolyl isomerase (rotamase) activity of the compounds used in the inventive methods and pharmaceutical compositions can be evaluated by known methods described in the literature (Harding et al., Nature, […], 341:758-760; Holt et al. J. Am. Chem. Soc., 115:9923-9938). These values are obtained as apparent K1's and are presented for representative compounds in TABLE III.
The cis-trans isomerization of an alanine-proline bond in a model substrate, N-succinyl-Ala-Ala-Pro-Phe-p-nitroanilide, is monitored spectrophotometrically in a chymotrypsin-coupled assay, which releases para-nitroanilide from the trans form of the substrate. The inhibition of this reaction caused by the addition of different concentrations of inhibitor is determined, and the data is analyzed as a change in first-order rate constant as a function of inhibitor concentration to yield the apparerent K1, values. […]
The absorbance at 390 nm versus time is monitored for 90 seconds using a spectrophotometer and the rate constants are determined from the absorbance versus time data files.

[2] = tested on: C57 black 6 mice; assay: In vivo hair generation test, Experiment A; conditions: 30 μM topical in 20% propylene glycol, 3 applications, after six weeks
Description: Care was taken not to nick or cause abrasion to the underlaying dermal layers. The animals were in anagen growth phase, as indicated by the pinkish color of the skin. […] Hair growth was quantitated by the percent of shaved area covered by new hair growth during this time period.

[3] = tested on: C57 black 6 mice; assay: In vivo hair generation test, Experiment B; conditions: one micromole per milliliter topical, three times per week, 14 days after initiation of treatment
Procedure: Care was taken not to nick or cause abrasion to the underlying dermal layers. The animals were in a […] growth phase when shaved. […] The animals were treated three times per week, and hair growth was evaluated 14 days after initiation of treatment.

Sequence of FKBP12 (P62942 whole entry): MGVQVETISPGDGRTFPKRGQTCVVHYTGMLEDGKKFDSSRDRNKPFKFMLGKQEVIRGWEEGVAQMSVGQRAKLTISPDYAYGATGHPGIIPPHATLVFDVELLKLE

`CCC(C)(C)C(=O)C(=O)N1CSC[C@@H]1C(=O)OCCCc1cccnc1` [Compound 2, 3-(3-pyridyl)-1-propyl (2S)-1-(3,3-dimethyl-1,2-dioxopentyl)-2-(4-thiazolidine) carboxylate] was tested, and the pKi [1] was 6.20.

For `CCC(C)(C)C(=O)C(=O)N1CCC[C@H]1C(=O)OCCCc1cccnc1` [GPI 1046], the “hair regrowth in the shaved area” value [2] was “essentially complete hair regrowth”.

In the case of `CCC(C)(C)C(=O)C(=O)N1CCS[C@@H]1C(=O)OCCCc1cccnc1` [GPI 1572], the “hair growth (relative hair growth index, FIG. 5)” value [3] was “dramatic hair growth”.

`CCC(C)(C)C(=O)C(=O)N1CSC[C@@H]1C(=O)OCCCc1ccccc1` [Compound 1, 3-phenyl-1-propyl (2S)-1-(3,3-dimethyl-1,2-dioxopentyl)-2-(4-thiazolidine)carboxylate] gave a pKi [1] of 6.67.
